Data reported in patent US20170190705A1, “Compositions and Methods for Inhibiting BMP” (THE BRIGHAM AND WOMAN'S HOSPITAL, INC., priority 2014, published 2017).
Where two headings read alike, the source gives them in different places.

Assays:
Format in all cases: biochemical
TYRO3 = target: T1, TYRO3 (Homo sapiens, UniProt Q06418); assay: Kinome profiling TYRO3; settings: read-out: Inhibitory activity TYRO3; for inhibition at 0.1 µM: 100 nM
T1 sequence (Q06418 41-890): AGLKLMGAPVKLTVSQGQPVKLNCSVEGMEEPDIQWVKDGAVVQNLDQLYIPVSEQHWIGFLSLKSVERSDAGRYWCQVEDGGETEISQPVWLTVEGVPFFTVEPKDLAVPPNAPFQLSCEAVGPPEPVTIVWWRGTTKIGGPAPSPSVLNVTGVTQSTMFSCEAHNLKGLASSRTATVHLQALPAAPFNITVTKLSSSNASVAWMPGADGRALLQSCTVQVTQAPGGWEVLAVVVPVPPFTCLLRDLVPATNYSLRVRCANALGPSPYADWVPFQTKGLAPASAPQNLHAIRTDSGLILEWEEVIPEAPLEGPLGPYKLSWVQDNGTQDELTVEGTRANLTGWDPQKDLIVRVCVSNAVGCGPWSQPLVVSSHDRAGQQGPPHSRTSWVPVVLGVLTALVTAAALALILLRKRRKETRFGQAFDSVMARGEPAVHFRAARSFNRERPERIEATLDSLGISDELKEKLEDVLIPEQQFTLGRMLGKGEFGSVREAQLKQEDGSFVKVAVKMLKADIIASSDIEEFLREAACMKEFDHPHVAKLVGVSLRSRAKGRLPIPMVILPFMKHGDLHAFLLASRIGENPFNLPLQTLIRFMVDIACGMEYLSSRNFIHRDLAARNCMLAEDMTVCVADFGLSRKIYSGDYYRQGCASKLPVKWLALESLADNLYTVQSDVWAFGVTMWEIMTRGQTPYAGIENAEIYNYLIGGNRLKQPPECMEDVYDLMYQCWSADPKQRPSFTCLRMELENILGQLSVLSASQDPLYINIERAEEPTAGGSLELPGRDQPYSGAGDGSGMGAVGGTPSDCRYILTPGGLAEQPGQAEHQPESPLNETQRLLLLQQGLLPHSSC
Description: (§1) . The kinome-wide selectivity was determined following the methods previously reported by Mohedas et al., ACS Chem Biol 2013, 8, 1291-1302 and Sanvitale et al., PLoS One 2013, 8, e62721.

CDK3/cyclinE = CDK3/cyclinE (Homo sapiens, UniProt Q00526); assay: Kinome profiling CDK3/cyclinE; settings: read-out: Inhibitory activity CDK3/cyclinE; for inhibition at 0.1 µM: 100 nM
Description: as §1

CLK2 = CLK2 (Homo sapiens, UniProt P49760); assay: Kinome profiling CLK2; settings: read-out: Inhibitory activity CLK2; for inhibition at 0.1 µM: 100 nM
Description: as §1

MER = target: T2, MER (Homo sapiens, UniProt Q12866); assay: Kinome profiling MER; settings: read-out: Inhibitory activity MER; for inhibition at 0.1 µM: 100 nM
T2 sequence (Q12866 21-999): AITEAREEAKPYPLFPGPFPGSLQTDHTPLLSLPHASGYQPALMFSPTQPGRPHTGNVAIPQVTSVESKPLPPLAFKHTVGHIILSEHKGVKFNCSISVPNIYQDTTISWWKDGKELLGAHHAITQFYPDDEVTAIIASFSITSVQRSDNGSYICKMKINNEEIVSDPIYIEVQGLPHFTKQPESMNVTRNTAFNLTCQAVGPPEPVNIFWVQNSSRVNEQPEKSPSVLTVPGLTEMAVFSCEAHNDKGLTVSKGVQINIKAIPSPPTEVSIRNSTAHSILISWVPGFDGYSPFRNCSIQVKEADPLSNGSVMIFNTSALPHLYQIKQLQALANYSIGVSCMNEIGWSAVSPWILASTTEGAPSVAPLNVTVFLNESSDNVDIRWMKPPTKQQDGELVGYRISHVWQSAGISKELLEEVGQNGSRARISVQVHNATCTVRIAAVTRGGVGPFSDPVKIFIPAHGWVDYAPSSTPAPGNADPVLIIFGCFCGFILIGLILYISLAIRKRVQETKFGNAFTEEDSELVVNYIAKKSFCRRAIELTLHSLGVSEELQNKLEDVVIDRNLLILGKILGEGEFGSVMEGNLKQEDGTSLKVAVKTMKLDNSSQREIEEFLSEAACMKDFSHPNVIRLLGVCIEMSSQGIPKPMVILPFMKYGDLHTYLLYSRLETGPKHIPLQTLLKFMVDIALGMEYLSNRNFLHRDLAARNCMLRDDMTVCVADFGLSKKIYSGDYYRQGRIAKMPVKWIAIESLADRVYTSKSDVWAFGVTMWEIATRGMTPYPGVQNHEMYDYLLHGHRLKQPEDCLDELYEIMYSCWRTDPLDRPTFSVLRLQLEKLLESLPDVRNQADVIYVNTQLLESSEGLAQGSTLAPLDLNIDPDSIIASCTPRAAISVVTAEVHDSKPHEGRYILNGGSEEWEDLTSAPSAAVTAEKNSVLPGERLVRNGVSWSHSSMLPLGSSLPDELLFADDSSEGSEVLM
Description: as §1

LYNB = LYNB (Homo sapiens, UniProt P07948); assay: Kinome profiling LYNB; settings: read-out: Inhibitory activity LYNB; for inhibition at 0.1 µM: 100 nM
Description: as §1

PI3-K-α = PI3-K-α (Homo sapiens, UniProt P42336); assay: Kinome profiling PI3-K-α; settings: read-out: Inhibitory activity PI3-K-α; for inhibition at 0.1 µM: 100 nM
Description: as §1

ABL1 = ABL1 (Homo sapiens, UniProt P00519); assay: Kinome profiling ABL1; settings: for inhibition at 0.1 µM: 100 nM
Description: as §1

JAK1 = JAK1 (Homo sapiens, UniProt P23458); assay: Kinome profiling JAK1; settings: read-out: Inhibitory activity JAK1; for inhibition at 0.1 µM: 100 nM
Description: as §1

ALK2 = ALK2 (Homo sapiens, UniProt Q04771); assay: Kinome profiling ALK2; settings: Table 4, read-out: Inhibitory Activity ALK2
Description: as §1

FLT-4 = FLT-4 (Homo sapiens, UniProt P35916); assay: Kinome profiling FLT-4; settings: read-out: Inhibitory activity FLT-4; for inhibition at 0.1 µM: 100 nM
Description: as §1

NEK6 = NEK6 (Homo sapiens, UniProt Q9HC98); assay: Kinome profiling NEK6; settings: read-out: Inhibitory activity NEK6; for inhibition at 0.1 µM: 100 nM
Description: as §1

[1] = Table 4, read-out: Inhibitory Activity ABL1
[2] = read-out: Inhibitory activity ABL1

Chain of CDK3/cyclinE (Q00526 whole entry): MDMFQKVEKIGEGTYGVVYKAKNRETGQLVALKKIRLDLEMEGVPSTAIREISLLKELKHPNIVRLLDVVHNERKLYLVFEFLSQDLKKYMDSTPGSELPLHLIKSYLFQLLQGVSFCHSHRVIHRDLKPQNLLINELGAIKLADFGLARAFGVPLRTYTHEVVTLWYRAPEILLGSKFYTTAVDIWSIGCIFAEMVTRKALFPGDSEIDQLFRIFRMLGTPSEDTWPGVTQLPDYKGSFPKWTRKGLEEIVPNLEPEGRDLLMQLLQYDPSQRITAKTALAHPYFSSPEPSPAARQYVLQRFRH
Chain of CDK3/cyclinE (P24864 whole entry partner): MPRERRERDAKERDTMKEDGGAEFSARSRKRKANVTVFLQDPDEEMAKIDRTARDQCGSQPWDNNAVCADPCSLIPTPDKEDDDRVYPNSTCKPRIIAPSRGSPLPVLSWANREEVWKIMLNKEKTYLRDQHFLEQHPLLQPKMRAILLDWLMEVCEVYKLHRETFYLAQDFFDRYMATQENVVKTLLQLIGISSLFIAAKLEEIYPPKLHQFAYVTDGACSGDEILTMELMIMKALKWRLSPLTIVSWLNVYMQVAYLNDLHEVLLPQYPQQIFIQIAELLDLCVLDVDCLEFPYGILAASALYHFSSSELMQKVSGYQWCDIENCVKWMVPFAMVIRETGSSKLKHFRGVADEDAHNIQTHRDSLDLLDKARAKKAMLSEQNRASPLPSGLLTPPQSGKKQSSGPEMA
Chain of JAK1 (P23458 whole entry): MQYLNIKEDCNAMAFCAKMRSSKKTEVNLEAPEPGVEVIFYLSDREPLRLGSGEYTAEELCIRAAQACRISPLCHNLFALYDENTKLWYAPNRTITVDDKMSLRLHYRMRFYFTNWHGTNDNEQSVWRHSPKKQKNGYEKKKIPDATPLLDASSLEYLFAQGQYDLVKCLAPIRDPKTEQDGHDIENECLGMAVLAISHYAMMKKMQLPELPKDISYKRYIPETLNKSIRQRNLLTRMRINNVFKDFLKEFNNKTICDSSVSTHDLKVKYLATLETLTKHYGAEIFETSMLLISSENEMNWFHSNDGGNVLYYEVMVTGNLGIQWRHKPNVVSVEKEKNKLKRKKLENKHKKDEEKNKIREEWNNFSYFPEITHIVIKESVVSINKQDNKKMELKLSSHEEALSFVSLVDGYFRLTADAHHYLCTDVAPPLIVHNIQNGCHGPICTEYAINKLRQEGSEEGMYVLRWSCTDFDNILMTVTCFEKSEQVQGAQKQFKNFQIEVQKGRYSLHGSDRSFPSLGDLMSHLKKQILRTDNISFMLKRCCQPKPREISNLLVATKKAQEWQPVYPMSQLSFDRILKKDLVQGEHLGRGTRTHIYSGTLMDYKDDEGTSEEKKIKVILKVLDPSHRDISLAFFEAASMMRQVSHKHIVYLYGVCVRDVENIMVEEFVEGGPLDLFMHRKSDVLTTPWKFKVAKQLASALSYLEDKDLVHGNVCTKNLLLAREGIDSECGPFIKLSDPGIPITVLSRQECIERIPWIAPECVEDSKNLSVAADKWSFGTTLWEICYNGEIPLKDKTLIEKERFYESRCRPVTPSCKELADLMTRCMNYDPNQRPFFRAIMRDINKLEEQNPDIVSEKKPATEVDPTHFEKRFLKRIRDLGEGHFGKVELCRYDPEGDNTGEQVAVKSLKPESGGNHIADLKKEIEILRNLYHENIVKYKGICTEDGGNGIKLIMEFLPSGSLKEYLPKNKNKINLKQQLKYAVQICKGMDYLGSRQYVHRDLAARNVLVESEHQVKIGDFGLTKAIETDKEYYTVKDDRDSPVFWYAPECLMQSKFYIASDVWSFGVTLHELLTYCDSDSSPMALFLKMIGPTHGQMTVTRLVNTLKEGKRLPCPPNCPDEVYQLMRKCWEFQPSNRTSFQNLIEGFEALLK
Chain of CLK2 (P49760 whole entry): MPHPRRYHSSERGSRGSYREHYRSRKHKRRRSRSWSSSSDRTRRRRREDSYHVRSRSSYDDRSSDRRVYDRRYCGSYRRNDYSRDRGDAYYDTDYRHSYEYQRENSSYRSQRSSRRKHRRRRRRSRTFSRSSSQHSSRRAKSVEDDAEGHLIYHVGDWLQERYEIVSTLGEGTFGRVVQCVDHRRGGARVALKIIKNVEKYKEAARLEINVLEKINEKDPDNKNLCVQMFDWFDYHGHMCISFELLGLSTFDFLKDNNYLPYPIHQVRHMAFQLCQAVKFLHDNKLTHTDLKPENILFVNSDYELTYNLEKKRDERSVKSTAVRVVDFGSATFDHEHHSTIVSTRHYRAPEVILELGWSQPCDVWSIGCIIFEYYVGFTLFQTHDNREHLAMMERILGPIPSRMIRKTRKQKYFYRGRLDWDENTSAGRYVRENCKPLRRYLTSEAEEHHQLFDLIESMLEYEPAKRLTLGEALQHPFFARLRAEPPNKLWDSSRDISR
Chain of NEK6 (Q9HC98 whole entry): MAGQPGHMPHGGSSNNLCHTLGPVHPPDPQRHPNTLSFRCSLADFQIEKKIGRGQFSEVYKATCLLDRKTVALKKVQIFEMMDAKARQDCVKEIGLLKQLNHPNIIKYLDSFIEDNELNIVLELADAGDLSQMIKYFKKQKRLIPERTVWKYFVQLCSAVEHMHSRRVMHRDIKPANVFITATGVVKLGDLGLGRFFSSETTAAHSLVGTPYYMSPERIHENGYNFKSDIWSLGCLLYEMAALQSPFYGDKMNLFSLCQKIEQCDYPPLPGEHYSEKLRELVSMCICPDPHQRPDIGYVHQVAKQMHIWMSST
Chain of ABL1 (P00519 whole entry): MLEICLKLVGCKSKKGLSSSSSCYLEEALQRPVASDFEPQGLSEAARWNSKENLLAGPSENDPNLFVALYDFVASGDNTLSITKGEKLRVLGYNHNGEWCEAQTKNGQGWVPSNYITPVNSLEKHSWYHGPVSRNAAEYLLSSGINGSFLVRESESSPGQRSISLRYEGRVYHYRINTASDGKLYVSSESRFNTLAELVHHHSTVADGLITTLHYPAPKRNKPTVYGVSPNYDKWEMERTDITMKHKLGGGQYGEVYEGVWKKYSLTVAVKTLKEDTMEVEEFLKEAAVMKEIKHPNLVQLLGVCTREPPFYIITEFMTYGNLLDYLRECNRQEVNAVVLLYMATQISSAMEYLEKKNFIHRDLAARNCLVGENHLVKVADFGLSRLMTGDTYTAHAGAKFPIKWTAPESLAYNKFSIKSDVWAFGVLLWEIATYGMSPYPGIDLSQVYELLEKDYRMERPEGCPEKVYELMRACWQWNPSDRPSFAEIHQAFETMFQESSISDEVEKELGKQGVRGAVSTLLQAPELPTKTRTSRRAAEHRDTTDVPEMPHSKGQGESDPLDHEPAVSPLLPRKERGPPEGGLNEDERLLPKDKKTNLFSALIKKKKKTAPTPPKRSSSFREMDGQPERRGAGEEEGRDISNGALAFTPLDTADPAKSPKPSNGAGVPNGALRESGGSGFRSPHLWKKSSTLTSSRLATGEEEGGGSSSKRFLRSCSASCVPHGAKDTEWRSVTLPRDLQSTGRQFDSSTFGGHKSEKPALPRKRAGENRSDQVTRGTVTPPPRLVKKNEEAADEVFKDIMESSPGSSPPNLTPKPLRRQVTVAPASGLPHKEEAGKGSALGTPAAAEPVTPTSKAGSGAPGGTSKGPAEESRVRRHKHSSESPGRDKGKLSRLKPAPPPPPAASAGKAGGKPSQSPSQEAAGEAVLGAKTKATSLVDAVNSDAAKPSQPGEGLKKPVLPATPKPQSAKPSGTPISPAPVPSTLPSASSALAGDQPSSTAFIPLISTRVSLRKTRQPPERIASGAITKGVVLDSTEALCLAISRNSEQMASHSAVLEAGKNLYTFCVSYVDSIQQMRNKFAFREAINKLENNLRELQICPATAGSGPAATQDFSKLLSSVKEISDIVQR
Chain of LYNB (P07948 1-491 isoform P07948-2): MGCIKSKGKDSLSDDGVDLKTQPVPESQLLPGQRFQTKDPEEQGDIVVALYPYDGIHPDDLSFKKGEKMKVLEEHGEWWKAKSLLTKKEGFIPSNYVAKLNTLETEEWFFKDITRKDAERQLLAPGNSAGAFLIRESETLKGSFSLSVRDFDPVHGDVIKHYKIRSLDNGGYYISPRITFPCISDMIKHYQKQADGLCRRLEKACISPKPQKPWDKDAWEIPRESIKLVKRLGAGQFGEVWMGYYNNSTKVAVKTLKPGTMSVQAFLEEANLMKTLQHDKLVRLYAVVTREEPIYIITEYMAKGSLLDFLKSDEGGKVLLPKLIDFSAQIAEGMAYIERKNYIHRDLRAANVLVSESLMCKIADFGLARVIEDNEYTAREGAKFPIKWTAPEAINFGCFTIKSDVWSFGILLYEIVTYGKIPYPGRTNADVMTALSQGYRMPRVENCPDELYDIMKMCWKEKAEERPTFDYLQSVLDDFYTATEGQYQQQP
Chain of ALK2 (Q04771 21-509): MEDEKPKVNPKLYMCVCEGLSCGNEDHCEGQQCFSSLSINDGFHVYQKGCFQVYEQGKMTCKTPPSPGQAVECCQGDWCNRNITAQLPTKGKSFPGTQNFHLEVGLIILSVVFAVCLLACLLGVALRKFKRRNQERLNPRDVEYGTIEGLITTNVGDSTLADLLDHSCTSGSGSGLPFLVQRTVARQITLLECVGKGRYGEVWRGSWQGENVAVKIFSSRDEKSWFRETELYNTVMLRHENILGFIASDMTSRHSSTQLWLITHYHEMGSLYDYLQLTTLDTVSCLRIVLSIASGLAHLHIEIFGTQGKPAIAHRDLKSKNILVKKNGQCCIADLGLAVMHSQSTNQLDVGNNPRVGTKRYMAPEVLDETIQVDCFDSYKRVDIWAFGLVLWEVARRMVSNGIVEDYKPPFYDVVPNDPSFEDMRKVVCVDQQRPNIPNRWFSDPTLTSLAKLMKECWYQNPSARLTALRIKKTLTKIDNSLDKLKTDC

Row | Compound | inhibition at 0.1 µM (TYRO3) [%] | inhibition at 1 µM (TYRO3) [%] | inhibition at 0.1 µM (CDK3/cyclinE) [%] | inhibition at 1 µM (CDK3/cyclinE) [%] | inhibition at 0.1 µM (CLK2) [%] | inhibition at 1 µM (CLK2) [%] | inhibition at 0.1 µM (MER) [%] | inhibition at 1 µM (MER) [%] | inhibition at 0.1 µM (LYNB) [%] | inhibition at 1 µM (LYNB) [%] | inhibition at 0.1 µM (PI3-K-α) [%] | inhibition at 1 µM (PI3-K-α) [%] | inhibition at 0.1 µM (ABL1; [2]) [%] | inhibition at 1 µM (ABL1; [2]) [%] | inhibition at 0.1 µM (JAK1) [%] | inhibition at 1 µM (JAK1) [%] | inhibition at 0.1 µM (FLT-4) [%] | inhibition at 1 µM (FLT-4) [%] | inhibition at 0.1 µM (NEK6) [%] | inhibition at 1 µM (NEK6) [%] | also measured
1 | COc1cc(-c2cc(-c3ccc(N4CCNCC4)cc3)cnc2C)cc(OC)c1OC [Compound 10, 1-(4-(6-methyl-5-(3,4,5-trimethoxyphenyl)pyridin-3-yl)phenyl)piperazine] | 4 | 21 | 2 | 2 | 2 | 2 | 8 | 36 | 8 | 30 | 5 | 7 | 56 | 93 | 2 | 2 | 3 | 9 | 1 | 0 | inhibition at 0.1 µM (ABL1; [1]): 56%; inhibition at 1 µM (ABL1; [1]): 93%; inhibition at 0.1 µM (ALK2; 100 nM): 67%; inhibition at 1 µM (ALK2; 1 μM): 99%
2 | COc1cc(-c2cc(-c3ccc(N4CCNCC4)cc3)cnc2N)cc(OC)c1OC [Compound 15, 5-(4-(piperazin-1-yl)phenyl)-3-(3,4,5-trimethoxyphenyl)pyridin-2-amine] | 23 | 75 | 0 | 0 | 1 | -1 | 30 | 76 | 35 | 82 | 4 | 4 | 77 | 84 | 1 | 0 | 1 | 4 | 0 | 4 | –
